Measured values published in publication PMC8819291, “Adaptively evolved human oral actinomyces‐sourced defensins show therapeutic potential” (EMBO Molecular Medicine, 2021).
Entries after “also recorded” stand apart in the source; their conditions may differ. Where a SMILES comes first, the peptide text is derived from it. Bridges are numbered along the chain shown (N, C = ends).

What was measured:
[1] = test system: Methicillin‐resistant coagulase negative Staphylococci P1369; assay: Inhibition-zone assay (lethal concentration); format: cell-based, Staphylococcus; conditions: Broth Medium, 37°C
Excerpt: Bacterial media used here included: Luria‐Bertani (LB) medium, THY medium (30 g Todd Hewitt broth and 5 g Yeast extract per liter), and tryptic soy broth (TSB) (Oxoid, Basingstoke, UK); Broth medium and brain–heart infusion (BHI) medium (Beijing Landbridge technology Limited by Share Ltd., Beijing, China); Potato dextrose (PD) medium (self‐prepared).
In brief, an overnight bacterial culture from a single colony was inoculated into fresh medium and grew to late log‐phase. A 10‐μl aliquot of each culture was diluted in 6‐ml pre‐heated medium containing 0.8% agar. The mixture was spread on a 9‐cm Petri dish, giving a depth of 1 mm. After settling, 3‐mm wells were punched in the plate and then 2‐μl peptide samples of different concentrations were added to each well. The agar plates were incubated overnight at indicated temperatures (Table EV4). A lethal concentration (C L ) was calculated from a plot of d^2 against log n, where d is the diameter (in cm) and n is the amount of sample applied in the well (in nmol). The plot is linear, and thus C L can be calculated from the slope (k) and the intercept (m) of this plot.

[2] = biological target: HNP1&2 (Homo sapiens, UniProt P59665); assay: Bio-affinity ESI-MS for non-covalent complexes; format: binding; conditions: 52.5 μM AMSIN and 73.5 μM HNP1&2 in 25 mM NH4OAc (pH5.2)
Protocol: (§1) All components for interactions were dissolved in 25 mM ammonium acetate (pH5.2). Electrospray spectra were recorded with Waters SynaptG2‐Si mass spectrometer (Waters, Manchester, UK) and measurements were performed with positive ESI in resolution mode. Ions were scanned in a mass range of 500–2,000 m/z with the following conditions: the capillary voltage at 1,500 V; the cone voltage at 40 V; the source block temperature at 30°C. Spectra were recorded and processed by the software Masslynx4.1 (Waters, Manchester, UK).

[3] = biological target: T1, hLZc (lysozyme C) (Homo sapiens, UniProt P61626); assay: Bio-affinity ESI-MS for non-covalent complexes; format: binding; conditions: 52.5 μM AMSIN and 50 μM hLZc in 25 mM NH4OAc (pH5.2)
T1 construct: lysozyme C) isolated from human saliva; from tissue; host or cells: human saliva
Protocol: as §1

[4] = test system: SM (Streptococcus mutans); assay: Killing kinetics assay; format: cell-based; conditions: peptide dose 4 × C L
Protocol: In brief, SM was grown overnight in broth medium and diluted in fresh medium to 1 × 10^8 CFU/ml. […] Viable cell counts were obtained after 24 h of incubation at 37°C. Bacterial growth in the medium without peptides was used as a control.

[5] = test system: BM cells (Bacillus megaterium); assay: Scanning electron microscope observation of cell deformation; format: cell-based; conditions: 10 × C L, 37°C, 90 min
Protocol: After centrifugation, bacterial pellets were fixed with 2.5% glutaraldehyde for 1 h, followed by washing three times with PBS buffer (pH 7.3). Dehydration was carried out with a series of graded ethanol solutions. Cells were then dried by BAL‐TEC CPD‐030 critical point dryer (Bal‐Tec AG, Balzers, Liechtenstein) before being mounted on carbon tape and sputtered with a gold coating (BAL‐TEC SCD005). Images were visualized in FEI QUANTA 450.

[6] = SPR binding of UMP to immobilized AMSIN (Biacore T100); conditions: read-out: Binding affinity of AMSIN to UMP (K D); AMSIN immobilized on CM5, UMP 100–3.125 μM in PBS-T pH 7.5, 25°C; 1:1 Langmuir model
Protocol: Surface plasmon resonance (SPR) analysis was performed on a Biacore T100 instrument with a CM‐5 sensor chip (GE Healthcare Life Sciences, USA) at 25°C. An amide coupling chemistry strategy was used to immobilize AMSIN on the chip surface. […] Non‐reacted carboxylic groups on the sensor chip surface were blocked by ethanolamine‐HCl (1 M, pH 8.5) for 420 s at a flow rate of 10 μl/min. The final immobilization level was 1,778 RUs. For detecting binding, the analyte UMP was serially diluted twofold with the running buffer PBS‐T (PBS buffer containing 0.05% Tween 20, pH 7.5) at final concentrations of 100–3.125 μM. Then, they were used to flow over the chip surface at a flow rate of 30 μl/min for 60 s. Dissociation was monitored for 120 s by injecting the running buffer suddenly after samples at a flow rate of 30 μl/min for complete removal of specifically and non‐specifically bound biological material from the surface. Responses were measured in RUs as the difference between active and reference channels. The binding curve was fitted with the software BIAevaluation v2.0.1 using 1:1 Langmuir binding model.

[7] = test system: HL‐60; assay: Cytotoxicity assay (CCK-8); format: cell-based, human; conditions: 72 h
[8] = test system: HEK 293; conditions: 25 µM (Appendix Fig S14), 72 h, CCK‐8
Protocol: Cells were cultured at 37°C in 5% CO2: 95% air incubator in Minimum Essential Medium (MEM) supplemented with 10% (v/v) fetal bovine serum (FBS). Cells were seeded at a density of 7 × 10^3 cells per well in 96‐well plates and incubated for 24 h. Media were then replaced with 200 μl of media containing various concentrations of peptides. The cells were incubated for 72 h and cytotoxicity was assessed with CCK‐8 Kits (Dojindo Molecular Technologies, Tokyo, Japan). Absorbance was detected at 450 nm with the TECAN Infinite M200 microplate reader (Tecan, Durham, USA).

[9] = test system: MRSA P1374; assay: Mouse peritonitis model; format: in vivo
Protocol: ICR male mice (30 g each mouse; 6 weeks of age) were infected with 0.5 ml of bacterial suspension (1 × 10^8 CFU per mouse) via intraperitoneal injection (i.p.), a dose that achieved 100% mortality within 24 h after infection. […] Vehicle (0.9%) treated control group included 11 mice. Schematic representation is provided in Appendix Fig S16C.

[10] = undiluted human serum (Human Serum AB), 0, 24 and 48 h, 37°C; read-out MRSA P1374, 1.0 nmol/well
[11] = 10 μg i.p. once daily for 3 days, serum after 2 days, 1:100 diluted over AMSIN-immobilized CM5 chip
Protocol: Firstly, three female ICR mice (25 g each mouse, 6 weeks of age) were injected intraperitoneally (i.p.) with 10‐μg protein dissolved in 0.9% NaCl once daily (OD) for 3 days. One female ICR mouse of 25 g (6 weeks of age) injected with 0.9% NaCl in the same manner was used as control. Blood samples were then collected from the mouse retro‐orbital plexus after 2 days. Sera were obtained by centrifugation and stored at –20°C until further use. […] In this process, bovine serum albumin (BSA) was added at a final concentration of 0.25 mg/ml to inhibit non‐specific binding. The amount of bound material, if any, was determined by measuring the increase in RUs.

Chain of HNP1&2 (P59665 66-94 limits assumed): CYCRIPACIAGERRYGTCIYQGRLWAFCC
T1 sequence (P61626 19-148): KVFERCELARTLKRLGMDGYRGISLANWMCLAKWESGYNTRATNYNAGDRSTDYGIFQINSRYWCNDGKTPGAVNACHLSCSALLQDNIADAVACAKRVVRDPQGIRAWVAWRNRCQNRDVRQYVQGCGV

## CC[C@H](C)[C@@H]1NC(=O)[C@H](CCCCN)NC(=O)CNC(=O)[C@H](CCCNC(=N)N)NC(=O)[C@@H]2CSSC[C@H](NC(=O)CNC(=O)[C@H](Cc3ccccc3)NC(=O)CN)C(=O)N3CCC[C@H]3C(=O)N[C@@H](Cc3c[nH]c4ccccc34)C(=O)N[C@@H](CC(N)=O)C(=O)N[C@@H](C)C(=O)N[C@@H](Cc3ccc(O)cc3)C(=O)N[C@@H](CCC(=O)O)C(=O)N[C@H]3CSSC[C@H](NC(=O)[C@H]([C@@H](C)O)NC(=O)[C@H](CCC(N)=O)NC(=O)[C@H](CCCNC(=N)N)NC1=O)C(=O)N[C@@H](Cc1c[nH]cn1)C(=O)N[C@H](C(=O)N[C@@H](Cc1ccc(O)cc1)C(=O)O)CSSC[C@H](NC(=O)[C@H](Cc1c[nH]cn1)NC(=O)[C@H](CCCNC(=N)N)NC(=O)[C@H](CC(=O)O)NC3=O)C(=O)N[C@@H](C(C)C)C(=O)N[C@@H](CO)C(=O)N[C@@H](CCCCN)C(=O)NCC(=O)N[C@@H](Cc1ccc(O)cc1)C(=O)N[C@@H]([C@@H](C)O)C(=O)NCC(=O)NCC(=O)N[C@@H](CC(N)=O)C(=O)N2 [AMSIN] (H-GFGCPWNAYECDRHCVSKGYTGGNCRGKIRQTCHCY-OH; disulfide 4-25, 11-33, 15-35; N-terminus and C-terminus assumed)
[1]
  Lethal concentration (C L): 1.07 µM
[2]
  Complex formation by ESI-MS: no complex formation
[3]
  Complex formation by ESI-MS: no complex formation
[4]; 0 min, start 1 × 10^8 CFU/ml
  Viable SM cells in killing kinetics: 8 Log10 (CFU/mL)
[4]; 15 min
  Viable SM cells in killing kinetics: 9 Log10 (CFU/mL)
[4]; 30 min
  Viable SM cells in killing kinetics: 8.9 Log10 (CFU/mL)
[4]; 120 min
  Viable SM cells in killing kinetics: 8.7 Log10 (CFU/mL)
[4]; 240 min
  Viable SM cells in killing kinetics: 8.5 Log10 (CFU/mL)
[5]
  Cell shape by scanning electron microscopy: deformation of the cell shape
[6]
  Kd: 24 µM
[7]; 25 μg/mL, replicate 1
  Cellular variability of HL-60 (%): 97%
[7]; 25 μg/mL, replicate 2
  Cellular variability of HL-60 (%): 101%
[7]; 25 μg/mL, replicate 3
  Cellular variability of HL-60 (%): 108%
[7]; 50 μg/mL, replicate 1
  Cellular variability of HL-60 (%): 97%
[7]; 50 μg/mL, replicate 2
  Cellular variability of HL-60 (%): 100%
[7]; 50 μg/mL, replicate 3
  Cellular variability of HL-60 (%): 103%
[7]; 100 μg/mL, replicate 1
  Cellular variability of HL-60 (%): 97%
[7]; 100 μg/mL, replicate 2
  Cellular variability of HL-60 (%): 102%
[7]; 100 μg/mL, replicate 3
  Cellular variability of HL-60 (%): 106%
[8]
  Viability of HEK 293: did not affect the viability
[9]; 1 × 10^8 CFU i.p., AMSIN i.v. 1 h post‐infection 20 mg per kg, then 10 mg per kg once daily, six mice, 7‐day study period
  Survival after peritoneal infection with MRSA P1374: all survived; also recorded: survived the 7‐day study period
[9]; intravenous injection (i.v.)
  Toxicity of administration route in the model: no obvious toxicity
[9]; same six treated mice, observation period
  Duration of continued survival: > 30 days
[10]
  Activity in serum compared with in H2O: slight decrease
[11]
  Anti-drug antibody in AMSIN-treated mouse serum: no obvious anti‐drug antibody
